No end group written: not given here.
What was measured:
Assay in all cases: biochemical
Format in all cases: binding
HLA-DR DRB5*0101 (DR51) = HLA-DR DRB5*0101 (DR51) (Homo sapiens, UniProt P01903+Q30154); conditions: DRB5 *0101
HLA-DR DRB4*0101 (DR53) = HLA-DR DRB4*0101 (DR53) (Homo sapiens, UniProt P01903+P13762, G164S); conditions: DRB4 *0101
HLA-DR DRB1*1302 (DR13) = HLA-DR DRB1*1302 (DR13) (Homo sapiens, UniProt P01903+P01911, A100E/A169T/K41T/L162R/M171V/P40S/Q125H/Q178H/Q39Y/Q99D/R42S/S66N/T262R/V115G/W38E/Y61H); conditions: DRBI *1302
HLA-DR DRB1*0401 (DR4) = HLA-DR DRB1*0401 (DR4) (Homo sapiens, UniProt P01903+P01911, A100K/A169T/F76Y/I96L/K127E/L162R/M171V/N62H/P40V/Q125Y/R42H/S133A/S149N/S66Y/V115G/V209L/W38E); conditions: DRB1 *0401
HLA-DR DRB1*0405 (DR4) = HLA-DR DRB1*0405 (DR4) (Homo sapiens, UniProt P01903+P01911, A100R/A169T/D86S/F76Y/I96L/K127E/L162R/M171V/N62H/P40V/Q125Y/R42H/S133A/S149N/S66Y/V115G/V209L/W38E); conditions: DRB1 *0405
HLA-DR DRB1*1101 (DR11) = HLA-DR DRB1*1101 (DR11) (Homo sapiens, UniProt P01903+P01911, A100R/A169T/A87E/I96F/K41T/L162R/M171V/P40S/Q125H/Q178H/Q39Y/Q99D/R42S/S66Y/T262R/V115G/W38E); conditions: DRB1 *1101
HLA-DR DRB1*0101 (DR1) = HLA-DR DRB1*0101 (DR1) (Homo sapiens, UniProt P01903+P01911, A100R/D57E/F55L/F60I/F76Y/I96L/L162R/M171V/P40L/Q125E/R42F/V115G/Y59C); conditions: DRB1 *0101
HLA-DR DRB1*0802 (DR8) = HLA-DR DRB1*0802 (DR8) (Homo sapiens, UniProt P01903+P01911, A100R/A103L/A169T/F76Y/H45Y/I96F/K41T/L162R/M171V/P40S/Q125H/Q178H/Q39Y/Q99D/R218S/R42G/S66Y/V115G/W38E)
HLA-DR DRB1*0901 (DR9) = HLA-DR DRB1*0901 (DR9) (Homo sapiens, UniProt P01903+P01911, A100R/A103E/D57H/D86V/F55Y/F60I/F76Y/I96F/K127E/L162R/M171V/P40D/Q125H/Q99R/R33Q/R42F/S133A/S66N/T210M/V115G/W38K/Y107V/Y59G/Y89S); conditions: DRB1 *0901
HLA-DR DRB1*0701 (DR7) = HLA-DR DRB1*0701 (DR7) (Homo sapiens, UniProt P01903+P01911, A100R/A102G/A103Q/D57E/D86V/E43K/F76Y/K127E/L162R/M171V/P40G/Q125H/Q99D/R33Q/R42Y/R54Q/S133A/S66F/T210M/V115G/Y107V/Y59L/Y89S); conditions: DRB1 *0701
HLA-DR DRB1*1501 (DR15) = HLA-DR DRB1*1501 (DR15) (Homo sapiens, UniProt P01903+P01911); conditions: DRBI *1501
HLA-DR DRB1*0301 (DR3) = HLA-DR DRB1*0301 (DR3) (Homo sapiens, UniProt P01903+P01911, A100K/A102G/A103R/A169T/F55Y/I96L/K41T/L162R/M171V/P40S/Q125H/Q178H/Q39Y/R42S/S66N/T106N/T262R/W38E/Y61H)
HLA-DR DRB3*0101 (DR52) = HLA-DR DRB3*0101 (DR52) (Homo sapiens, UniProt P01903+P79483)

Chain of HLA-DR DRB1*1302 (DR13) (P01903 26-254 limits assumed, other chains not shown): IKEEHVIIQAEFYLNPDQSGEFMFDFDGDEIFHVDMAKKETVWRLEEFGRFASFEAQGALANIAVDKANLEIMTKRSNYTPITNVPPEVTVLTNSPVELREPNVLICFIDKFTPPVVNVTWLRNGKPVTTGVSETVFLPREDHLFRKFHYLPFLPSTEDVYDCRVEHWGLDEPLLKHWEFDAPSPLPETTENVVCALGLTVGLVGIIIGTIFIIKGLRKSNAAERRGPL
Chain of HLA-DR DRB1*1101 (DR11) (P01903 26-254 limits assumed, other chains not shown): as above
Chain of HLA-DR DRB1*0301 (DR3) (P01903 26-254 limits assumed, other chains not shown): as above

Sequence	IC50 (HLA-DR DRB5*0101 (DR51)) [µM]	IC50 (HLA-DR DRB4*0101 (DR53)) [nM]	IC50 (HLA-DR DRB1*1302 (DR13)) [µM]	IC50 (HLA-DR DRB1*0401 (DR4)) [µM]	IC50 (HLA-DR DRB1*0405 (DR4)) [nM]	IC50 (HLA-DR DRB1*1101 (DR11)) [µM]	IC50 (HLA-DR DRB1*0101 (DR1)) [nM]	IC50 (HLA-DR DRB1*0802 (DR8)) [µM]	IC50 (HLA-DR DRB1*0901 (DR9)) [µM]	IC50 (HLA-DR DRB1*0701 (DR7)) [µM]	IC50 (HLA-DR DRB1*1501 (DR15)) [nM]	IC50 (HLA-DR DRB1*0301 (DR3)) [µM]	IC50 (HLA-DR DRB3*0101 (DR52)) [µM]
TCVLGKLSQELHKLQ	3.99	163	> 12.6	14.8	9000	1.4	26	7.66	17.9	18.7	2010	29.5	> 263
RLRIVRGTQLFEDNYAL	0.046	120	0.0052	8.39	1020	2.07	4.8	6.32	1.83	0.012	31	11.3	1.2
ICLLLIQSWLEPVQF	> 9.51	49	0.954	11.3	71	> 15.4		> 33.3	> 59.5	0.643	1770	50.9	188
SDSNIYDLLKDLEEG	> 9.51	24300	> 16.2	17.5	137	> 15.4	> 18000	> 33.3	50.1	> 85	> 86700	124	> 18.7
FVNQHLCGSHLVEAL [FVNQHLCGSHLVEAL]	47.2		10.6	19.2	> 20700	> 1110	583	> 54.4	> 63	0.679	1200	> 187	> 95.2
VEALYLVCGERGSFY	0.804		4.29		6110	> 10.5	88	> 54.4	6.31	6.49	1240	9.97	> 95.2
QSQKLLWQLNGRLEY	0.402		0.155	0.084	55	> 60.6	127	0.991	5.92		108	33.4	5.61
LHKLQTYPRTNTGSG	0.04	22900	> 12.6		> 7400	6.09	2120	1.62	> 29.2	40.2	157	> 205	> 263
TTVLGKLSQELHKLQ	10.6	241	12.7		> 9810	3.52		16.2	23.8		525	92.8	> 263
TSNLSTTVLGKLSQE	2.53		9.33	8.02	9280	0.534		2.06	2.47	31.3	7700	86.8	> 263
QHLTGSHLVEALYLV	23.7		6.86	> 16.1	7420	> 10.5	9.3	> 54.4	42.3	0.038	184	50.3	4.03
NSLVYGASDSNIYDL	> 9.51	3290		0.24	1230	> 15.4		> 33.3	> 59.5	0.297	971	> 51.4	31.6
EHTSLNENITVPDTK	5.55	> 29000	0.013		1240	> 408	43900	> 16.3	> 78.9	37.2	11100	33.6	> 42.2
DMDKVETFLRIVQTR		190	3.38	2.03	454	0.206	1110	0.183	51.5	0.436	> 86700	11.2	13.7
RSSNTQTQKLLWQLN	8.55	26		2.14	12600	> 42.6	10500	1.28	> 77.3	27.7	2740	44.3	0.751

Reference: patent publication US20060079453A1, “Hla binding peptides and their uses” (priority 2002, published 2006)
